These results are taken from article PMC7551256, “Biochemical Characterization of a Novel Endo-1,3-β-Glucanase from the Scallop Chlamys farreri” (Marine Drugs, 2020).

Assay [1] deals with T1, Lcf (Azumapecten farreri, UniProt A0A140H631).
T1 construct: full length without signal peptide; secreted from Brevibacillus (pNCMO2, BamHI/XhoI); about 37 kDa; primers encode AGFRDDF at N-terminus and DYIEMIPH-stop at C-terminus
T1 sequence (A0A140H631 16-340): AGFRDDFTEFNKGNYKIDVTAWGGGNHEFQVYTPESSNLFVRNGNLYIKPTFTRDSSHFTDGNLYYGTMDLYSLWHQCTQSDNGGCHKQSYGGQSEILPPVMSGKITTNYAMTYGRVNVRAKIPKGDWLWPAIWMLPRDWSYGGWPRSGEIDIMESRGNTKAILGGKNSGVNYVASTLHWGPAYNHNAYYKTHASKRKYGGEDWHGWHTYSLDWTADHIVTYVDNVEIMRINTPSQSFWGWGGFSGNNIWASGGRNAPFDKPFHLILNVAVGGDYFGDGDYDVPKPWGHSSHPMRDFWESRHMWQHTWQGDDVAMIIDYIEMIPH
The assay is described as follows: ESI-MS of transglycosylation products. In kind it is biochemical. To be noted: glycosyl acceptor 2 mg/mL; donor laminarihexaose 2 mg/mL; 25 mM sodium acetate pH 5.6, 37 °C, 5 min.

In assay [2] the target is T1, Lcf. Description: TLC of hydrolysis products; ESI-MS. The assay is classed as biochemical. The settings on record: 0.1% (w/w) substrate, 50 mM sodium acetate pH 5.6, 37 °C; hydrolysed, also glycosyl donor.

Turning to `OC[C@@H](O)[C@@H](O)[C@H](O)[C@@H](O)CO` [D-sorbitol], the “ESI-MS of transglycosylation products” value in assay [1] is given as “three transglycosylation products were observed in the presence of D-sorbitol”. Consider `OC[C@H]1O[C@@H](O[C@@H]2[C@@H](O)[C@H](O[C@@H]3[C@@H](O)[C@H](O[C@@H]4[C@@H](O)[C@H](O[C@@H]5[C@@H](O)[C@H](O[C@H]6[C@H](O)[C@@H](CO)OC(O)[C@@H]6O)O[C@H](CO)[C@H]5O)O[C@H](CO)[C@H]4O)O[C@H](CO)[C@H]3O)O[C@H](CO)[C@H]2O)[C@H](O)[C@@H](O)[C@@H]1O` (some centres unmarked) [laminarihexaose], for which, in assay [2], the “TLC of hydrolysis products; ESI-MS” value is listed as “Lcf showed a more efficient cleavage rate toward laminarinexaose”.
